The values that follow come from ChEMBL document CHEMBL1134717 (Bioorg Med Chem Lett, 2001).

One test addresses Mu-type opioid receptor (Cavia porcellus, UniProt P97266). Kind of test: Binding affinity towards Opioid receptor mu 1 of guinea pig brain membranes using radioligand 0.25 nM [3H]DAMGO.
Test [1] has as its target Kappa-type opioid receptor (Cavia porcellus, UniProt P41144). Kind of test: Binding affinity towards guinea pig Opioid receptor kappa 1 using radioligand [3H]U-69593.

Kappa-type opioid receptor, sequence (P41144 whole entry): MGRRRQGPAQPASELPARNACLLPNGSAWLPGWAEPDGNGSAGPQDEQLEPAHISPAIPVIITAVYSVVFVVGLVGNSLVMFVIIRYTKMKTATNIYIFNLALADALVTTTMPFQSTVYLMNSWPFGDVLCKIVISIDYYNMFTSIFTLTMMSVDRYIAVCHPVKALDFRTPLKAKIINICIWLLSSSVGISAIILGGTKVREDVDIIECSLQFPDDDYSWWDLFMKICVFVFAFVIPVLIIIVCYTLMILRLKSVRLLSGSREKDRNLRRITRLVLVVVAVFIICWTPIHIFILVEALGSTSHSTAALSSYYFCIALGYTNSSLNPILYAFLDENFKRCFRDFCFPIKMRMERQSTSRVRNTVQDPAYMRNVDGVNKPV
Mu-type opioid receptor, sequence (P97266 whole entry): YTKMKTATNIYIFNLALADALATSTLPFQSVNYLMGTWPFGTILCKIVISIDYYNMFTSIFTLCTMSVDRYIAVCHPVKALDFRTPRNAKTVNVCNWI

`CN1CC[C@]23c4c5ccc(C(N)=O)c4OC2C(O)C=C[C@H]3[C@H]1C5` (stereo partly drawn): the Ki is 34 nM at Mu-type opioid receptor and 2000 nM in test [1]. The like results for `CNC(=O)c1ccc2c3c1OC1C(O)C=C[C@H]4[C@@H](C2)N(C)CC[C@]314` (stereo partly drawn) were, in that order, 440 nM and greater than 10000 nM. On to `CN(C)C(=O)c1ccc2c3c1OC1C(O)C=C[C@H]4[C@@H](C2)N(C)CC[C@]314` (stereo partly drawn), for which, in test [1], the inhibition constant Ki was greater than 10000 nM.

For the compound `NC(=O)c1ccc2c3c1O[C@H]1C(=O)CC[C@@]4(O)[C@@H](C2)N(CC2CC2)CC[C@]314`, the inhibition constant Ki at Mu-type opioid receptor came to 1.9 nM; in test [1], 22 nM. For the compound `C[C@H]1[C@H]2Cc3ccc(O)cc3[C@]1(C)CCN2CC1CC1` [CYCLAZOCINE], in test [1], the affinity corresponds to a Ki of 0.18 nM.
